PMC8330735 (Journal of Enzyme Inhibition and Medicinal Chemistry, 2021)

Key:
[1] = system: HCA7 cells; experiment: MTS cell viability assay HCA7; assay type: cell-based; details: Homo sapiens, HCA-7, 48 h, cell line highly expressing COX-2
Procedure: (§1) Human colorectal cancer cell lines, HCT116 and HT29, and RAW 264.7 macrophages were obtained from ATCC (Manassas, VA). HCA7 colorectal cancer cell line was obtained from Sigma. HT29 and HCT116 cells were cultured in McCoy's 5 A medium (Sigma Aldrich, St. Louis, MO) containing 10% heat-inactivated foetal bovine serum (HI-FBS) (Gibco, USA), 100 μg/mL streptomycin (Invitrogen, USA), and […] penicillin (Invitrogen, USA)[40]. HCA7 and RAW 264.7 cells were cultured in Dulbecco's minimal essential media (DMEM, Invitrogen) containing 10% HI-FBS, sodium pyruvate (1 mM), penicillin ([…]), and streptomycin (100 mg/m)[41]^,[42].
(§2) Cells were cultured in 96‐well plates for 48 h and then treated with serum-free media containing different concentrations of the tested compounds (12.5, 25, 50, 100 and 150 µM). After 48 h., MTS reagent (Promega) was added as directed by the manufacturer, and then, the absorbance was measured at 495 nm. The absorbance is proportional to the number of viable cells. IC50 was calculated from the dose-response curves as described previously[45] using GraphPad Prism 8 software (GraphPad Software, San Diego, CA).

[2] = system: NO production in LPS-activated RAW 264.7 macrophages; experiment: NO production in LPS-activated RAW 264.7 macrophages (DAF-FM); assay type: cell-based; details: Mus musculus, RAW264.7; LPS 1 µg/mL activated RAW 264.7
Procedure: HCA7 colorectal cancer cell line was obtained from Sigma. […] Louis, MO) containing 10% heat-inactivated foetal bovine serum (HI-FBS) (Gibco, USA), 100 μg/mL streptomycin (Invitrogen, USA), and […] penicillin (Invitrogen, USA)[40]. HCA7 and RAW 264.7 cells were cultured in Dulbecco's minimal essential media (DMEM, Invitrogen) containing 10% HI-FBS, sodium pyruvate (1 mM), penicillin ([…]), and streptomycin (100 mg/m)[41]^,[42]. […] Molecular Probes, USA). Briefly, RAW 264.7 cells were cultured in black 96-well plates (200,000 cells/mL, 100 µl/well) for 24 h. […] The fluorescence intensity, which is directly proportional to NO levels, was quantified, as detailed in our previous study. IC50 values were calculated from the dose–response curves.

[3] = target: T1, ovine COX-1 (Ovis aries, UniProt P05979); experiment: In vitro COX-1 inhibitory assay (colorimetric Cayman kit)
T1 sequence (P05979 25-600): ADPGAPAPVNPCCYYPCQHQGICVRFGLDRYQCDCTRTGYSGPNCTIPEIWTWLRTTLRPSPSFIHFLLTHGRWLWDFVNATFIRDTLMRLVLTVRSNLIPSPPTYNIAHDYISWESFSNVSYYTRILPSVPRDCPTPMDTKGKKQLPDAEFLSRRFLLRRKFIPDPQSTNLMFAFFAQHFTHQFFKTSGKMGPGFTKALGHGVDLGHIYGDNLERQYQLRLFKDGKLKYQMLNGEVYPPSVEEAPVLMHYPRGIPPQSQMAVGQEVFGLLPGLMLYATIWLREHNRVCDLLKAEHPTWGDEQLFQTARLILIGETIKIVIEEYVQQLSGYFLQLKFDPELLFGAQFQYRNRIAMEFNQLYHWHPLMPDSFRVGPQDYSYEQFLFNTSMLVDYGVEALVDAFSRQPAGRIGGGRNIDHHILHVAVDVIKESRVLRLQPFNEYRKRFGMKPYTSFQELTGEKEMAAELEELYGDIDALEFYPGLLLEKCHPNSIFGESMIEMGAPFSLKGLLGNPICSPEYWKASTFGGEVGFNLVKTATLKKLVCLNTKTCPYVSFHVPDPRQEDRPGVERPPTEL
Procedure: (§3) All the newly synthesised compounds were tested for their ability to inhibit COX-1 and COX-2 enzymes using a screening assay method.

[4] = system: acetic acid-induced writhing in mice; experiment: Acetic acid induced writhing test; assay type: in vivo; details: 50 mg/kg p.o.; for Number of writhes: 1 h prior acetic acid i.p., within 30 min
Procedure: The number of writhes, manifested as extension of hind legs, constriction of abdomen, or turning of trunk was recorded within 30 min.

[5] = target: T2, human recombinant COX-2 (Homo sapiens, UniProt P35354); experiment: In vitro COX-2 inhibitory assay (colorimetric Cayman kit); details: for Selectivity Index (SI): COX-1 IC50/COX-2 IC50
T2 sequence (P35354 18-604): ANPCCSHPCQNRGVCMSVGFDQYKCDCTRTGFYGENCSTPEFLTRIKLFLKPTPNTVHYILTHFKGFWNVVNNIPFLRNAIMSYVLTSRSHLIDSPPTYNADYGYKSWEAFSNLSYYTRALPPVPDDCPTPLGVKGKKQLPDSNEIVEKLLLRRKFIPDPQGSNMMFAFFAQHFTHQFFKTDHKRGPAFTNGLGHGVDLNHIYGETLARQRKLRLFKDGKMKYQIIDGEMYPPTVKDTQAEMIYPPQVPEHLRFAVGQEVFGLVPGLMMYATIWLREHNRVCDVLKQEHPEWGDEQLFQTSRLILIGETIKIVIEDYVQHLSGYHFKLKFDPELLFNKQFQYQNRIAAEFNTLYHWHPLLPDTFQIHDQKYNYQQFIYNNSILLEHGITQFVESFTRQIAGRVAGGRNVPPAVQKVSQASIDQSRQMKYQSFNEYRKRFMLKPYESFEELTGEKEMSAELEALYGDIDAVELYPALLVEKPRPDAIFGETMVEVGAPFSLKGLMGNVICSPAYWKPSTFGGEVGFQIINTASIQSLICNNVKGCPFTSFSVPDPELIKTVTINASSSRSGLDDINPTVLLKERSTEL
Procedure: as §3

[6] = system: HCT116 cells; experiment: MTS cell viability assay HCT116; assay type: cell-based; details: Homo sapiens, HCT-116, 48 h, cell line scarcely expressing COX-2
Procedure: as §1, §2

[7] = system: carrageenan-induced rat paw oedema; experiment: Carrageenan-induced rat paw oedema test; assay type: in vivo; details: compounds and celecoxib 50 mg/kg, ibuprofen and indomethacin 20 mg/kg; for Mean oedema thickness 1h: 1 h after carrageenan; for Mean oedema thickness 1h / Mean oedema thickness 2h / Mean oedema thickness 3h / Mean oedema thickness 4h / Mean oedema thickness 5h / Mean oedema thickness 24h / Mean oedema thickness 0h: mean ± SEM, n = 5; for Mean oedema thickness 2h: 2 h after carrageenan; for Mean oedema thickness 3h: 3 h after carrageenan; for Mean oedema thickness 4h: 4 h after carrageenan; for Mean oedema thickness 5h: 5 h after carrageenan; for Mean oedema thickness 24h: 24 h after carrageenan; for Mean oedema thickness 0h: before carrageenan (0 h); for Average oedema inhibition%: from area under the curve of all time points
Procedure: The rats were divided into nine groups (n = 5/group). All tested compounds were suspended in 1% Tween-80. Group 1, controls, were given the vehicle (1% Tween80, 10 ml/kg). […] The rats were given the drugs 1 h before the injection of carrageenan solution (1% in 0.9% NaCl, 0.1 ml) (Sigma Aldrich, USA) in the sub-planter tissue of the right hind paw. The paw thickness (mm) was measured using a calliper before (0 h) and after carrageenan injection at 1, 2, 3, 4, 5 and 24 h. The inhibition of oedema thickness was calculated using the following formula (control– drug/control) × 100.

Row | IC50 [2] [µM] | melting point [°C] | IC50 [3] [µM] | IC50 [5] [µM] | Selectivity Index (SI) [5] | IC50 [6] [µM] | Selectivity Index (SI) ([5]; listed as 13 b) | SMILES | IC50 [1] [µM] | Reduction in the pain response (writhes number) [4] [%] | Number of writhes [4] | Mean oedema thickness 1h [7] [mm] | Mean oedema thickness 2h [7] [mm] | Mean oedema thickness 3h [7] [mm] | Mean oedema thickness 4h [7] [mm] | Mean oedema thickness 5h [7] [mm] | Mean oedema thickness 24h [7] [mm] | Mean oedema thickness 0h [7] [mm] | Average oedema inhibition% [7] [%]
1 | 23.4 ± 1.29 | 111 to 116 | 14.73 ± 0.13 | 0.037 | 398.11 | > 150 | – | CC(C)Cc1ccc(C(C)C(=O)NN2C(=O)c3ccccc3N(C)C2c2ccc([N+](=O)[O-])cc2)cc1 (stereo not shown) [7c, 2-(4-Isobutylphenyl)-N-(1-methyl-2-(4-nitrophenyl)-4-oxo-1,4-dihydroquinazolin-3(2H)-yl) propenamide] | > 150 | 78 | 11.33 writhes | 1.79 ± 0.04 | 2.21 ± 0.35 | 1.90 ± 0.44 | 1.62 ± 0.26 | 1.55 ± 0.29 | 0.06 ± 0.04 | 0.00 ± 0.00 | 45.37
2 | 9.76 ± 2.14 | 210 to 215 | 16.92 ± 0.16 | 0.045 | 373.77 | > 150 | 373 | NNC(=O)CSc1nc2ccccc2c(=O)n1NC(=O)Cc1ccccc1 [13b, N-(2-((2-hydrazinyl-2-oxoethyl)thio)-4-oxoquinazolin-3(4H)-yl)-2-phenylacetamide] | > 150 | – | no writhes | 2.26 ± 0.30 | 2.58 ± 0.41 | 2.67 ± 0.15 | 1.97 ± 0.29 | 1.61 ± 0.23 | 0.45 ± 0.14 | 0.00 ± 0.00 | 45.49
